From patent US7964607B2, “Pyrazolo[3,4-d]pyrimidine compounds” (Pfizer Inc., priority 2007, dated 2011)

Target: T1, human recombinant PDE9 enzyme (Homo sapiens, UniProt O76083)
T1 construct: made in house; host or cells: SF-9 insect cells
Assay: Phosphodiesterase 9 (PDE9) inhibitory activity, Scintillation Proximity (SPA) assay
Format: biochemical
Conditions: not given
In short: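 Recombinant human PDE9 from SF-9 cell lysate supernatant, diluted so that ≤20% of [3H]cGMP substrate was hydrolysed to 5′GMP. Reaction started with enzyme and run 30 min at room temperature with 2% DMSO final. SPA beads were counted after >300 min; background came from a high concentration of a PDE inhibitor.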

T1 sequence (O76083 whole entry): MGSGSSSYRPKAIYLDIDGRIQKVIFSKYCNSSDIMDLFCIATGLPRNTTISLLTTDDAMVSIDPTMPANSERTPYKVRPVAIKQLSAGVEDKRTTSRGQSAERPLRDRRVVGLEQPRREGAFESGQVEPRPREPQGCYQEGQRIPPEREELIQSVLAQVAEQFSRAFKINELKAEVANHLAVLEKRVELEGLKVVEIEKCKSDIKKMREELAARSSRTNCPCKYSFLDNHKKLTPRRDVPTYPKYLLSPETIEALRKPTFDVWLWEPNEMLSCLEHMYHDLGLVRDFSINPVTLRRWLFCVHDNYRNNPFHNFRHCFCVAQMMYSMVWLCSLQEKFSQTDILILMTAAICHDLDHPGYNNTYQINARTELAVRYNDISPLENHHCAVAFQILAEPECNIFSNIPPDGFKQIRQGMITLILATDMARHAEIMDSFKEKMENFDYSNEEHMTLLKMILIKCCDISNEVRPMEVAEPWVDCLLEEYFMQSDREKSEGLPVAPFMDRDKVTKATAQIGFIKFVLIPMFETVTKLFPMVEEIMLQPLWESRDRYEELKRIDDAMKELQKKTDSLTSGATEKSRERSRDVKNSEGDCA

| SMILES | IC50 [nM] |
| --- | --- |
| C[C@@H]1CN(Cc2ccccc2)C[C@H]1c1nc2c(cnn2C2CCOCC2)c(=O)[nH]1 (racemic) [Example 60, 6-[(3,4-trans)-1-benzyl-4-methylpyrrolidin-3-yl]-1-(tetrahydro-2H-pyran-4-yl)-1,5-dihydro-4H-pyrazolo[3,4-d]pyrimidin-4-one] | 44.8 |

Same assay, conditions: human recombinant PDE9 from SF-9 cells; 50 nM [3H]cGMP; room temperature, 30 min; Examples 3-114; read-out: G5678A (U): IC50

| SMILES | IC50 [nM] |
| --- | --- |
| O=c1[nH]c([C@@H]2CN(Cc3ccccc3)C[C@H]2CC(F)(F)F)nc2c1cnn2C1CCCC1 (racemic) [Example 62, 6-[(3,4-trans)-1-benzyl-4-(2,2,2-trifluoroethyl)pyrrolidin-3-yl]-1-cyclopentyl-1,5-dihydro-4H-pyrazolo[3,4-d]pyrimidin-4-one] | 520 |
| C[C@@H]1CN(Cc2cnc3ccccc3c2)C[C@H]1c1nc2c(cnn2C2CCCC2)c(=O)[nH]1 (racemic) [Example 19, 1-cyclopentyl-6-[(3,4-trans)-4-methyl-1-(quinolin-3-ylmethyl)pyrrolidin-3-yl]-1,5-dihydro-4H-pyrazolo[3,4-d]pyrimidin-4-one] | 2.68 |
| C[C@@H]1CN(Cc2cccc(C(F)(F)F)c2)C[C@H]1c1nc2c(cnn2C2CCOCC2)c(=O)[nH]1 [Example 105, 6-{(3S,4S)-4-methyl-1-[3-(trifluoromethyl)benzyl]pyrrolidin-3-yl}-1-(tetrahydro-2H-pyran-4-yl)-1,5-dihydro-4H-pyrazolo[3,4-d]pyrimidin-4-one] | 3.29 |
| C[C@@H]1CN(Cc2ccccc2)C[C@H]1c1nc2c(cnn2C2CCCC2)c(=O)[nH]1 [Example 3, 6-[(3S,4S)-1-benzyl-4-methylpyrrolidin-3-yl]-1-cyclopentyl-1,5-dihydro-4H-pyrazolo[3,4-d]pyrimidin-4-one] | 9.46 |
| C[C@@H]1CN(Cc2cncnc2)C[C@H]1c1nc2c(cnn2C2CCCC2)c(=O)[nH]1 (racemic) [Example 14, 1-cyclopentyl-6-[(3,4-trans)-4-methyl-1-(pyrimidin-5-ylmethyl)pyrrolidin-3-yl]-1,5-dihydro-4H-pyrazolo[3,4-d]pyrimidin-4-one] | 26 |
| Cc1nn(C2CCCC2)c2nc([C@@H]3CN(Cc4ccccc4)C[C@H]3C)[nH]c(=O)c12 (racemic) [Example 22, 6-[(3,4-trans)-1-benzyl-4-methylpyrrolidin-3-yl]-1-cyclopentyl-3-methyl-1,5-dihydro-4H-pyrazolo[3,4-d]pyrimidin-4-one] | 43.6 |
| C[C@@H]1CN(Cc2cccc3cccnc23)C[C@H]1c1nc2c(cnn2C2CCCC2)c(=O)[nH]1 (racemic) [Example 18, 1-cyclopentyl-6-[(3,4-trans)-4-methyl-1-(quinolin-8-ylmethyl)pyrrolidin-3-yl]-1,5-dihydro-4H-pyrazolo[3,4-d]pyrimidin-4-one] | 8.26 |
| C[C@@H]1CN(CCc2ccccc2)C[C@H]1c1nc2c(cnn2C2CCCC2)c(=O)[nH]1 (racemic) [Example 24, 1-cyclopentyl-6-[(3,4-trans)-4-methyl-1-(2-phenylethyl)pyrrolidin-3-yl]-1,5-dihydro-4H-pyrazolo[3,4-d]pyrimidin-4-one] | 119 |
| CC(C)n1ncc2c(=O)[nH]c([C@@H]3CN(Cc4cnc5ccccc5c4)C[C@H]3C)nc21 [Example 37, 1-isopropyl-6-[(3S,4S)-4-methyl-1-(quinolin-3-ylmethyl)pyrrolidin-3-yl]-1,5-dihydro-4H-pyrazolo[3,4-d]pyrimidin-4-one] | 3.23 |
| COc1ccc2nccc(CN3C[C@@H](C)[C@H](c4nc5c(cnn5C(C)C)c(=O)[nH]4)C3)c2n1 (racemic) [Example 69, 1-isopropyl-6-{(3,4-trans)-1-[(6-methoxy-1,5-naphthyridin-4-yl)methyl]-4-methylpyrrolidin-3-yl}-1,5-dihydro-4H-pyrazolo[3,4-d]pyrimidin-4-one] | 30.7 |
| C[C@@H]1CN(Cc2ccccn2)C[C@H]1c1nc2c(cnn2C2CCCC2)c(=O)[nH]1 (racemic) [Example 26, 1-cyclopentyl-6-[(3,4-trans)-4-methyl-1-(pyridin-2-ylmethyl)pyrrolidin-3-yl]-1,5-dihydro-4H-pyrazolo[3,4-d]pyrimidin-4-one] | 11.4 |
| CC[C@@H]1CN(Cc2cnc(C)nc2)C[C@H]1c1nc2c(cnn2C(C)C)c(=O)[nH]1 (relative stereo) [Example 59, 6-{(3,4-trans)-4-ethyl-1-[(2-methylpyrimidin-5-yl)methyl]pyrrolidin-3-yl}-1-isopropyl-1,5-dihydro-4H-pyrazolo[3,4-d]pyrimidin-4-one] | 7.37 |
| Cc1cccnc1CN1C[C@@H](C)[C@H](c2nc3c(cnn3C3CCCC3)c(=O)[nH]2)C1 (racemic) [Example 27, 1-cyclopentyl-6-{(3,4-trans)-4-methyl-1-[(3-methylpyridin-2-yl)methyl]pyrrolidin-3-yl}-1,5-dihydro-4H-pyrazolo[3,4-d]pyrimidin-4-one] | 7.45 |
| C[C@@H]1CN(Cc2ccc3nccnc3c2)C[C@H]1c1nc2c(cnn2C2CCCC2)c(=O)[nH]1 (racemic) [Example 13, 1-cyclopentyl-6-[(3,4-trans)-4-methyl-1-(quinoxalin-6-ylmethyl)pyrrolidin-3-yl]-1,5-dihydro-4H-pyrazolo[3,4-d]pyrimidin-4-one] | 6.61 |
| Cc1nccc(CN2C[C@@H](C)[C@H](c3nc4c(cnn4C4CCOCC4)c(=O)[nH]3)C2)n1 [Example 78, 6-{(3S,4S)-4-methyl-1-[(2-methylpyrimidin-4-yl)methyl]pyrrolidin-3-yl}-1-(tetrahydro-2H-pyran-4-yl)-1,5-dihydro-4H-pyrazolo[3,4-d]pyrimidin-4-one] | 4.35 |
| Cc1cc(CN2C[C@@H](C)[C@H](c3nc4c(cnn4C4CCCC4)c(=O)[nH]3)C2)n(C)n1 [Example 47, 1-cyclopentyl-6-{(3S,4S)-1-[(1,3-dimethyl-1H-pyrazolo-5-yl)methyl]-4-methylpyrrolidin-3-yl}-1,5-dihydro-4H-pyrazolo[3,4-d]pyrimidin-4-one] | 5.53 |
| CC(C)n1ncc2c(=O)[nH]c([C@@H]3CN(Cc4ccc5nccnc5c4)C[C@H]3C)nc21 (racemic) [Example 33, 1-isopropyl-6-[(3,4-trans)-4-methyl-1-(quinoxalin-6-ylmethyl)pyrrolidin-3-yl]-1,5-dihydro-4H-pyrazolo[3,4-d]pyrimidin-4-one] | 6.29 |

Same assay, conditions: human recombinant PDE9 from SF-9 cells; 50 nM [3H]cGMP; room temperature, 30 min; additional compounds Ex. 115-228; read-out: G5678A (U):IC50

| SMILES | IC50 [nM] |
| --- | --- |
| C[C@@H]1CN(CC2CCCC2)C[C@H]1c1nc2c(cnn2C2CCCC2)c(=O)[nH]1 (racemic) [Example 205, 1-cyclopentyl-6-[(3,4-trans)-1-(cyclopentylmethyl)-4-methylpyrrolidin-3-yl]-1,5-dihydro-4H-pyrazolo[3,4-d]pyrimidin-4-one] | 286 |
| Cc1nc(C)c(CN2C[C@@H](C)[C@H](c3nc4c(cnn4C4CCCC4)c(=O)[nH]3)C2)nc1C (racemic) [Example 212, 1-cyclopentyl-6-{(3,4-trans)-4-methyl-1-[(3,5,6-trimethylpyrazin-2-yl)methyl]pyrrolidin-3-yl}-1,5-dihydro-4H-pyrazolo[3,4-d]pyrimidin-4-one] | 9.98 |
| CCn1cc(CN2C[C@@H](C)[C@H](c3nc4c(cnn4C4CCCC4)c(=O)[nH]3)C2)cn1 (racemic) [Example 170, 1-cyclopentyl-6-{(3,4-trans)-1-[(1-ethyl-1H-pyrazol-4-yl)methyl]-4-methylpyrrolidin-3-yl}-1,5-dihydro-4H-pyrazolo[3,4-d]pyrimidin-4-one] | 74.6 |
| COc1cc(CN2C[C@@H](C)[C@H](c3nc4c(cnn4C4CCCC4)c(=O)[nH]3)C2)cc(OC)c1 (racemic) [Example 152, 1-cyclopentyl-6-[(3,4-trans)-1-(3,5-dimethoxybenzyl)-4-methylpyrrolidin-3-yl]-1,5-dihydro-4H-pyrazolo[3,4-d]pyrimidin-4-one] | 42.2 |
| COc1c(C)cnc(CN2C[C@@H](C)[C@H](c3nc4c(cnn4C4CCCC4)c(=O)[nH]3)C2)c1C (racemic) [Example 196, 1-cyclopentyl-6-{(3,4-trans)-1-[(4-methoxy-3,5-dimethylpyridin-2-yl)methyl]-4-methylpyrrolidin-3-yl}-1,5-dihydro-4H-pyrazolo[3,4-d]pyrimidin-4-one] | 187 |
| Cc1cccc(CN2C[C@@H](C)[C@H](c3nc4c(cnn4C4CCCC4)c(=O)[nH]3)C2)c1C (racemic) [Example 118, 1-cyclopentyl-6-[(3,4-trans)-1-(2,3-dimethylbenzyl)-4-methylpyrrolidin-3-yl]-1,5-dihydro-4H-pyrazolo[3,4-d]pyrimidin-4-one] | 74 |
| C[C@@H]1CN(Cc2cccc(Cl)c2Cl)C[C@H]1c1nc2c(cnn2C2CCCC2)c(=O)[nH]1 (racemic) [Example 164, 1-cyclopentyl-6-[(3,4-trans)-1-(2,3-dichlorobenzyl)-4-methylpyrrolidin-3-yl]-1,5-dihydro-4H-pyrazolo[3,4-d]pyrimidin-4-one] | 78.9 |
| C[C@@H]1CN(Cc2ccccc2OC(F)F)C[C@H]1c1nc2c(cnn2C2CCCC2)c(=O)[nH]1 (racemic) [Example 119, 1-cyclopentyl-6-{(3,4-trans)-1-[2-(difluoromethoxy)benzyl]-4-methylpyrrolidin-3-yl}-1,5-dihydro-4H-pyrazolo[3,4-d]pyrimidin-4-one] | 32.8 |
| C[C@@H]1CN(Cc2cccc(Cl)c2F)C[C@H]1c1nc2c(cnn2C2CCCC2)c(=O)[nH]1 (racemic) [Example 163, 6-[(3,4-trans)-1-(3-chloro-2-fluorobenzyl)-4-methylpyrrolidin-3-yl]-1-cyclopentyl-1,5-dihydro-4H-pyrazolo[3,4-d]pyrimidin-4-one] | 53.4 |
| C[C@@H]1CN(Cc2ccno2)C[C@H]1c1nc2c(cnn2C2CCCC2)c(=O)[nH]1 (racemic) [Example 172, 1-cyclopentyl-6-[(3,4-trans)-1-(isoxazol-5-ylmethyl)-4-methylpyrrolidin-3-yl]-1,5-dihydro-4H-pyrazolo[3,4-d]pyrimidin-4-one] | 67 |
